{"source": "PubChem BioAssay AID1996", "data": [{"conditions": "buffer; pH 7.4; 200.0 µM", "units": {"solubility kinetic": "µg/mL"}, "values": [{"smiles": "Cc1nccn1CCOc1ccccc1Cl", "solubility kinetic": 33.2}, {"smiles": "Cc1ccc([N+](=O)[O-])c(OCCCN2C(=O)NC(C)(C)C2=O)c1", "solubility kinetic": "> 48.2"}, {"smiles": "COc1ccc(-c2cc(-c3cccnc3)c(C#N)c(N)n2)cc1", "solubility kinetic": 0.6}, {"smiles": "Cc1cc(SCC(=O)N2CCCC2=O)nc2c(C)cccc12", "solubility kinetic": 2.3}, {"smiles": "CCC(C)C12CN3CCN(CC(C)(C3)C1O)C2", "note": "(stereo not given)", "solubility kinetic": "> 35.8"}, {"smiles": "COc1ccc(C)cc1N(CC(=O)N1CCCC1)S(C)(=O)=O", "solubility kinetic": "> 49"}, {"smiles": "CN(C)C(=O)CSc1nc2ccc(N3C(=O)c4ccccc4C3=O)cc2s1", "solubility kinetic": 3.1}, {"smiles": "COc1ccc(Cn2c(C(F)(F)F)ccc(C(N)=O)c2=O)cc1", "solubility kinetic": 8.2}, {"smiles": "COc1cccc(NC(=O)COC(=O)CC2CC3CCC2C3)c1", "note": "(stereo not given)", "solubility kinetic": 24.1}, {"smiles": "COc1cccc(NC(=O)Cn2cc(C(=O)C3CC3)c3ccccc32)c1", "solubility kinetic": 0.8}, {"smiles": "Cc1ccc(NC(=O)C(C)C(=O)Nc2ccc(C)cc2)cc1", "solubility kinetic": 1.5}, {"smiles": "Cc1ccc(NC(=O)C2CCN(S(C)(=O)=O)CC2)cc1Cl", "solubility kinetic": 16.4}, {"smiles": "O=C(CCc1ccc(S(=O)(=O)N2CCOCC2)cc1)OCC(=O)c1ccccc1", "solubility kinetic": 7.6}, {"smiles": "CCCCCCC1CC(=O)NC(=O)N1", "note": "(stereo not given)", "solubility kinetic": 27.8}, {"smiles": "COc1ccc(CCNC(=O)CN(C)S(=O)(=O)c2ccc(OC)cc2)cc1", "solubility kinetic": "> 58.9"}, {"smiles": "COc1ccc(F)cc1COc1nc(C)nc2ccccc12", "solubility kinetic": 28.3}, {"smiles": "Cc1ccc(S(=O)(=O)N2CCCN(C(=O)OC(C)(C)C)CC2)cc1", "solubility kinetic": "> 53.2"}, {"smiles": "COc1ccc(N2C(=O)NC3CC2(C)Oc2ccccc23)cc1", "note": "(stereo not given)", "solubility kinetic": 44.4}, {"smiles": "COc1cnc(-c2ccccc2)nc1Oc1ccc(Cl)cc1C", "solubility kinetic": "< 0.3"}, {"smiles": "N#Cc1ccc(CN2CCN(C(=O)C3CC(=O)N(c4ccccc4F)C3)CC2)cc1", "note": "(stereo not given)", "solubility kinetic": "> 61"}, {"smiles": "CCCCN(CC)C(=O)c1cc2c(=O)n3cccc(C)c3nc2s1", "solubility kinetic": 44.5}, {"smiles": "O=C(COC(=O)c1cccs1)Nc1ccc(F)c(F)c1", "solubility kinetic": 24.9}, {"smiles": "NC(=O)C1CCN(S(=O)(=O)Cc2ccccc2Cl)CC1", "solubility kinetic": "> 47.5"}, {"smiles": "Cc1cccc(C(=O)O/N=C(\\N)Cc2cccc3ccccc23)c1", "solubility kinetic": 2.3}, {"smiles": "CN(C)c1ccc(CCc2ccc(N)cc2)cc1", "solubility kinetic": 21}, {"smiles": "O=C(c1ccc(=O)oc1)N1CCC(C(O)(c2ccccc2)c2ccccc2)CC1", "solubility kinetic": 57.3}, {"smiles": "CCOc1ccc(NCCC(O)c2ccc(F)cc2)cc1", "note": "(stereo not given)", "solubility kinetic": 30.9}, {"smiles": "Cn1c(-c2cccs2)nc2ccccc21", "solubility kinetic": 30.4}, {"smiles": "CC(NC(=O)c1ccc(Cl)cc1)C1CC2CCC1C2", "note": "(stereo not given)", "solubility kinetic": 1.1}, {"smiles": "Cc1nc(SCC(=O)NC2CCCC2)[nH]c(=O)c1C", "solubility kinetic": 38.4}, {"smiles": "CCN(CC)c1ccc(/C=C2\\SC(N)=NC2=O)cc1", "solubility kinetic": "< 0.2"}, {"smiles": "COc1ccc(-n2c(C)nc3ccccc3c2=O)c([N+](=O)[O-])c1", "solubility kinetic": 39.4}, {"smiles": "Cn1c(N)c(C(=O)COC(=O)COc2ccc(Cl)cc2Cl)c(=O)n(C)c1=O", "solubility kinetic": 4.7}, {"smiles": "Nc1[nH]c2cc([N+](=O)[O-])ccc2c1-c1ccccn1", "solubility kinetic": 1.4}, {"smiles": "CCn1c(CNC(=O)c2cccnc2)cc2ccccc21", "solubility kinetic": "> 41.9"}, {"smiles": "Clc1ccc2c(c1)CCc1cccnc1C2=C1CCNCC1", "solubility kinetic": 21.6}, {"smiles": "Cc1cccc(-c2nc(C#N)c(N3CCCCC3)o2)c1", "solubility kinetic": 0.4}, {"smiles": "Cc1c(C(=O)O)sc2nc3n(c(=O)c12)CCC3", "solubility kinetic": "> 37.5"}, {"smiles": "CC(=O)N1CCN(c2ccc(NC(=O)c3ccccc3C)cc2)CC1", "solubility kinetic": 36.8}, {"smiles": "O=C(Nc1cc(S(=O)(=O)N2CCOCC2)ccc1N1CCOCC1)c1c(F)cccc1Cl", "solubility kinetic": 2.2}, {"smiles": "COc1ccc(NC(=O)Cc2ccc(Cl)c(Cl)c2)cn1", "solubility kinetic": 8.9}, {"smiles": "Cn1c(=O)n(C)c2cc(NC(=O)CSc3ccccc3)ccc21", "solubility kinetic": "> 49.1"}, {"smiles": "Cc1ccc(C)c(Cn2cnc3c(oc4ccccc43)c2=O)c1", "solubility kinetic": "< 0.3"}, {"smiles": "Cc1cccc2sc(NC(=O)Cn3c(C)csc3=O)nc12", "solubility kinetic": 5.1}, {"smiles": "O=C(OCc1nc2ccsc2c(=O)[nH]1)c1ccco1", "solubility kinetic": "> 41.4"}, {"smiles": "CC(=O)c1c(OC(=O)c2ccccc2)ccnc1C(F)(F)F", "solubility kinetic": "> 46.4"}, {"smiles": "CNCCc1ccc(O)c(O)c1.Cl", "solubility kinetic": 17.2}, {"smiles": "COc1ccccc1NC(=O)COc1ccc(C(=O)NCC2CCCO2)cc1OC", "note": "(stereo not given)", "solubility kinetic": 51.5}, {"smiles": "Cc1nn(-c2ccccc2)c(-c2ccccc2[N+](=O)[O-])c1C(=O)O", "solubility kinetic": "> 48.5"}, {"smiles": "O=C1NC2(CCCCCC2)C(=O)N1Cc1ccccc1Cl", "solubility kinetic": 6.8}, {"smiles": "N#C/C(=C\\c1cccnc1)C(=O)Nc1ccc(SC(F)F)cc1", "solubility kinetic": 8}, {"smiles": "COc1ccc(C(=S)N2CCN(c3cccc(Cl)c3)CC2)cc1", "solubility kinetic": 1.2}, {"smiles": "N#Cc1cccc(C#N)c1Oc1ccc(S(=O)(=O)Nc2ccccc2)cc1", "solubility kinetic": 18.4}, {"smiles": "COc1ccc(Nc2nc3nonc3nc2N2CCCCC2)cc1", "solubility kinetic": 5.3}, {"smiles": "COc1cc(OC)c(NC(=O)/C=C/C(=O)O)cc1Cl", "solubility kinetic": "> 42.9"}, {"smiles": "Cc1cc(C(=O)Nc2ccc(F)c(Cl)c2)on1", "solubility kinetic": 18.3}, {"smiles": "CC(C)CC1NC(=O)N(CC(=O)N(C)C2CCCCC2)C1=O", "note": "(stereo not given)", "solubility kinetic": "> 46.4"}, {"smiles": "CCOC(=O)C1CCCN(S(=O)(=O)Cc2ccc(Cl)cc2)C1", "note": "(stereo not given)", "solubility kinetic": 51}, {"smiles": "Cc1cccc(C)c1NC(=O)C(C)N1CCCCC1", "note": "(stereo not given)", "solubility kinetic": 38.3}, {"smiles": "N#Cc1c(Cl)cccc1N1CCC(C(N)=O)CC1", "solubility kinetic": "> 39.6"}]}]}
